Data taken from ChEMBL document CHEMBL1138999, “Synthesis and in vitro evaluation of novel derivatives of diphenylsulfide as serotonin transporter ligands” (Bioorg Med Chem Lett, 2006).

Legend:
[1] = biological target: T1, Sodium-dependent serotonin transporter (Homo sapiens, UniProt P31645); assay: Inhibitory activity against SERT
[2] = biological target: Sodium-dependent dopamine transporter (Homo sapiens, UniProt Q01959); assay: Inhibitory activity against DAT
[3] = biological target: Sodium-dependent noradrenaline transporter (Homo sapiens, UniProt P23975); assay: Inhibitory activity against NET
[4] = biological target: T1, Sodium-dependent serotonin transporter; assay: Displacement of [3H]paroxetine from SERT

Chain of Sodium-dependent dopamine transporter (Q01959 whole entry): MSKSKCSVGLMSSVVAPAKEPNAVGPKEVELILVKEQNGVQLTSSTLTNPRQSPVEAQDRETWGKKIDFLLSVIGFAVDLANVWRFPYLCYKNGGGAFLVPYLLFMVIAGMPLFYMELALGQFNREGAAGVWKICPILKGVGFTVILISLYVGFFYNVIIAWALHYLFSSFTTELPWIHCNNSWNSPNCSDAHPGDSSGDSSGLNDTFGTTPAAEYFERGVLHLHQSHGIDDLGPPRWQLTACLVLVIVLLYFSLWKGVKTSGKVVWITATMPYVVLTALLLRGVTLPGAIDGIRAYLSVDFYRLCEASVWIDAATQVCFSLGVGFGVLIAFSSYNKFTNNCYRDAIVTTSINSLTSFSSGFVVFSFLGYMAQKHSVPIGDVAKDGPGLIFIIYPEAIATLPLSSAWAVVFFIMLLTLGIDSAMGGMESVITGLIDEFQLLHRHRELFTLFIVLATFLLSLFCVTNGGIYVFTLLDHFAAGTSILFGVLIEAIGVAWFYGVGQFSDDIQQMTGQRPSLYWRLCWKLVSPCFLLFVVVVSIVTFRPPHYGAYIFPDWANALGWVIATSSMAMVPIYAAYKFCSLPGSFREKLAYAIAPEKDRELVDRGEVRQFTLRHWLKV
T1 sequence (P31645 whole entry): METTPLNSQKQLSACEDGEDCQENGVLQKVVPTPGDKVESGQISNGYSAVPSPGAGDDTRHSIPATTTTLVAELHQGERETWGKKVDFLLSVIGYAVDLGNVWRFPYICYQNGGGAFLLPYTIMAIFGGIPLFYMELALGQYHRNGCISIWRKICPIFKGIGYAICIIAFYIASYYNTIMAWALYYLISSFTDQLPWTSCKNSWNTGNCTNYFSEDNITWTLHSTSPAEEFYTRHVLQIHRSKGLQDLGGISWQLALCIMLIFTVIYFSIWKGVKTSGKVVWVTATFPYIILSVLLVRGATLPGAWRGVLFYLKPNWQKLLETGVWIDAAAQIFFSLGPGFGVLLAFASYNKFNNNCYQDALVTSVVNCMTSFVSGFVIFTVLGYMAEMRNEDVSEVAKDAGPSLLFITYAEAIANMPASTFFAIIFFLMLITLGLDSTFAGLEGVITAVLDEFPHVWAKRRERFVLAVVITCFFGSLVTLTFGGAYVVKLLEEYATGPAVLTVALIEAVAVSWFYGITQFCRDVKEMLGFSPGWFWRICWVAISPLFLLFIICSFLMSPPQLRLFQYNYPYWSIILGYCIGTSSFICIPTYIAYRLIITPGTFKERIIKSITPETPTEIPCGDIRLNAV
Chain of Sodium-dependent noradrenaline transporter (P23975 whole entry): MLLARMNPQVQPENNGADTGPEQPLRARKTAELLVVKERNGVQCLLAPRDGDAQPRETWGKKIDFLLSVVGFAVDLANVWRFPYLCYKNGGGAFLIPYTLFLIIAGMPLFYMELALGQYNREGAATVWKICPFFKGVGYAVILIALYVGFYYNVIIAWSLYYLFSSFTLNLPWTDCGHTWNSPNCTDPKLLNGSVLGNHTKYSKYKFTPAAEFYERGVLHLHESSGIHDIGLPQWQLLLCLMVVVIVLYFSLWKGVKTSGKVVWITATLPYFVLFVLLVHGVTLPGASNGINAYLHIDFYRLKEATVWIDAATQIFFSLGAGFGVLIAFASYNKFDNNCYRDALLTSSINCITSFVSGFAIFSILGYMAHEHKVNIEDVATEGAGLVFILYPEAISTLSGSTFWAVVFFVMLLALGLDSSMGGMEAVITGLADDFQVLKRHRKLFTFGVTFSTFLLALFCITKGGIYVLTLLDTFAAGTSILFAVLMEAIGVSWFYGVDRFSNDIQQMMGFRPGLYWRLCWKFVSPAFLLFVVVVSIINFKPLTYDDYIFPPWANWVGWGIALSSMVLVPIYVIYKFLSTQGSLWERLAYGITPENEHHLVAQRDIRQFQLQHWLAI

Row | Compound | IC50 [1] [nM] | IC50 [2] [nM] | IC50 [3] [nM] | Ki [4] [nM]
1 | Cc1ccc(N)c(-c2ccccc2CN(C)C)c1 | > 100 | > 100 | > 100 | 
2 | Cc1ccc([S+]([O-])c2ccccc2CN(C)C)c(N)c1 (centres undefined) |  | > 100 | > 100 | 4.15
3 | Cc1ccc(Oc2ccccc2CN(C)C)c(N)c1 |  | > 100 | > 100 | 0.53
4 | Cc1ccc(N(c2ccccc2)c2ccccc2CN(C)C)c(N)c1 | > 100 | > 100 | > 100 | 
5 | COC(c1ccc(C)cc1N)c1ccccc1CN(C)C (centres undefined) | > 100 | > 100 | > 100 | 
6 | Cc1ccc(N(C)c2ccccc2CN(C)C)c(N)c1 | > 100 | > 100 | > 100 | 
7 | Cc1ccc(N(Cc2ccccc2)c2ccccc2CN(C)C)c(N)c1 | > 100 | > 100 | > 100 | 
8 | Cc1ccc(S(=O)(=O)c2ccccc2CN(C)C)c(N)c1 | > 100 | > 100 | > 100 | 

More lines, now with the values ahead:

Row | IC50 [1] [nM] | IC50 [2] [nM] | IC50 [3] [nM] | Ki [4] [nM] | Compound
9 | > 100 | > 100 | > 100 |  | Cc1ccc(C(=O)c2ccccc2CN(C)C)c(N)c1
10 | > 100 | > 100 | > 100 |  | Cc1ccc(C(O)c2ccccc2CN(C)C)c(N)c1 (centres undefined)
11 | > 100 | > 100 | > 100 |  | CCN(c1ccc(C)cc1N)c1ccccc1CN(C)C
12 |  | > 100 | > 100 | 1.65 | Cc1ccc(Sc2ccccc2CN(C)C)c(N)c1
13 |  | > 100 | > 100 | 10.3 | Cc1ccc(Nc2ccccc2CN(C)C)c(N)c1
